Measurements as given in ChEMBL document CHEMBL4483862, “Open-source discovery of chemical leads for next-generation chemoprotective antimalarials” (2018).

System: Plasmodium berghei
Experiment: Luciferase/luciferin-expressing antifolate-resistant parasites were used to infect a culture of HepG2 cells that were pre-incubated with compounds. Infected hepatocytes emit light due to the luciferase reaction. Assay results are presented as the percent inhibition of light emission compared to control. […]
Type: functional
Conditions: sporozoite; for IC90: read-out: LUCIFERASE INFECTION ASSAY - IC90

| SMILES | IC90 | further results |
| --- | --- | --- |
| C=CCCC(=O)Nc1ccc(Br)cn1 | > 12.9 µM | IC50 (HEPG2TOX_HILL_SLOPE 2.37, HEPG2TOX_R_SQUARED 0.964, PBLUC_HILL_SLOPE 2.08, PBLUC_R_SQUARED 0.0582, read-out: LUCIFERASE INFECTION ASSAY - IC50): 5.2 µM |
| Cn1cccc1C(=O)Nc1nc(-c2ccccn2)cs1 | 4.04 µM | IC50 (HEPG2TOX_HILL_SLOPE 2.43, HEPG2TOX_R_SQUARED 0.643, PBLUC_HILL_SLOPE 14.5, PBLUC_R_SQUARED 0.519, read-out: LUCIFERASE INFECTION ASSAY - IC50): 3.47 µM |
| Cc1c(-c2ccccc2)sc2ncnc(NCc3nnc4ccccn34)c12 | > 10 µM | IC50 (HEPG2TOX_HILL_SLOPE 2.41, HEPG2TOX_R_SQUARED 0.925, PBLUC_HILL_SLOPE 1.56, PBLUC_R_SQUARED 0.71, read-out: LUCIFERASE INFECTION ASSAY - IC50): 2.86 µM |
| Clc1ccc2[nH]cc(CCNc3nc(Cl)nc4nc[nH]c34)c2c1 | 0.6 µM | IC50 (HEPG2TOX_HILL_SLOPE 2.4, HEPG2TOX_R_SQUARED 0.982, PBLUC_HILL_SLOPE 2.19, PBLUC_R_SQUARED 0.753, read-out: LUCIFERASE INFECTION ASSAY - IC50): 0.22 µM |
| Cc1sc(NC(=O)c2ccc(Cn3cncn3)cc2)nc1-c1ccc(Br)cc1 | > 10 µM | IC50 (HEPG2TOX_HILL_SLOPE 2.39, HEPG2TOX_R_SQUARED 0.794, PBLUC_HILL_SLOPE 2.3, PBLUC_R_SQUARED 0.342, read-out: LUCIFERASE INFECTION ASSAY - IC50): > 10 µM |
| Cc1cn2c(/C=c3\s/c(=C\C(=O)c4ccccc4C)n(C)c3=O)c(C)nc2s1 | 0.619 µM | IC50 (HEPG2TOX_HILL_SLOPE 2.41, HEPG2TOX_R_SQUARED 0.966, PBLUC_HILL_SLOPE 72.2, PBLUC_R_SQUARED 0.61, read-out: LUCIFERASE INFECTION ASSAY - IC50): 0.6 µM |
| CCC1CCc2sc(C(=O)NNC(=O)c3cnccn3)cc2C1 (centres undefined) | > 10 µM | IC50 (HEPG2TOX_HILL_SLOPE 2.38, HEPG2TOX_R_SQUARED 0.712, PBLUC_HILL_SLOPE 3.73, PBLUC_R_SQUARED 0.532, read-out: LUCIFERASE INFECTION ASSAY - IC50): 6.76 µM |
| CC(C)(C)CNC(=S)N/N=C/c1cc(Cl)cc(Cl)c1O | > 9.87 µM | IC50 (HEPG2TOX_HILL_SLOPE 2.41, HEPG2TOX_R_SQUARED 0.728, PBLUC_HILL_SLOPE 9.45, PBLUC_R_SQUARED 0.267, read-out: LUCIFERASE INFECTION ASSAY - IC50): 9.07 µM |
| COc1ccc(C(=O)C(/C=N/N)=N/Nc2cc(C)cc(C)c2)cc1 | 5.98 µM | IC50 (HEPG2TOX_HILL_SLOPE 2.41, HEPG2TOX_R_SQUARED 0.984, PBLUC_HILL_SLOPE 5.05, PBLUC_R_SQUARED 0.51, read-out: LUCIFERASE INFECTION ASSAY - IC50): 3.87 µM |
| O=S(=O)(c1ccc(Cl)s1)N1CCN(c2ncnc3ccccc23)CC1 | > 10 µM | IC50 (HEPG2TOX_HILL_SLOPE 2.41, HEPG2TOX_R_SQUARED 0.894, PBLUC_HILL_SLOPE 2.42, PBLUC_R_SQUARED 0.407, read-out: LUCIFERASE INFECTION ASSAY - IC50): 4.98 µM |
| O=C(Nc1ccccc1)Nc1cc(NC(=O)Nc2ccccc2)cc(C(F)(F)F)c1 | > 7.96 µM | IC50 (HEPG2TOX_HILL_SLOPE 2.43, HEPG2TOX_R_SQUARED 0.913, read-out: LUCIFERASE INFECTION ASSAY - IC50): > 7.96 µM |
| Cc1cc(O)c(/C=N/Nc2ncc(C(F)(F)F)cc2Cl)c(=O)o1 | > 9.49 µM | IC50 (HEPG2TOX_HILL_SLOPE 2.38, HEPG2TOX_R_SQUARED 0.982, PBLUC_HILL_SLOPE 7.99, PBLUC_R_SQUARED 0.344, read-out: LUCIFERASE INFECTION ASSAY - IC50): 7.73 µM |
| CN(CC(=O)Nc1ccc(OC(F)(F)F)cc1)Cc1cc([N+](=O)[O-])ccc1O | 3.33 µM | IC50 (HEPG2TOX_HILL_SLOPE 2.38, HEPG2TOX_R_SQUARED 0.828, PBLUC_HILL_SLOPE 9.41, PBLUC_R_SQUARED 0.824, read-out: LUCIFERASE INFECTION ASSAY - IC50): 2.64 µM |
| O=C(c1cccs1)c1c(-c2ccccc2)cc2ccccn12 | 3.73 µM | IC50 (HEPG2TOX_HILL_SLOPE 2.42, HEPG2TOX_R_SQUARED 0.887, PBLUC_HILL_SLOPE 12.4, 11.2, PBLUC_R_SQUARED 0.720, 0.734, read-out: LUCIFERASE INFECTION ASSAY - IC50): 3.1 µM |
| Cc1ccc(/C(C#N)=C/c2ccc3c(c2)OCO3)cc1 | > 12.5 µM | IC50 (HEPG2TOX_HILL_SLOPE 2.41, HEPG2TOX_R_SQUARED 0.881, PBLUC_HILL_SLOPE 2.57, PBLUC_R_SQUARED 0.299, read-out: LUCIFERASE INFECTION ASSAY - IC50): 9.11 µM |
| Cc1cc(Br)c(NC(=S)NC(=O)C(C)(C)C)c(Br)c1 | > 8.09 µM | IC50 (HEPG2TOX_HILL_SLOPE 2.38, HEPG2TOX_R_SQUARED 0.209, read-out: LUCIFERASE INFECTION ASSAY - IC50): > 8.09 µM |

| SMILES | IC90 | further results |
| --- | --- | --- |
| CC(=O)Nc1nc(C(=O)Nc2ccc(Nc3ccccc3)cc2)cs1 | > 10 µM | IC50 (HEPG2TOX_HILL_SLOPE 2.43, HEPG2TOX_R_SQUARED 0.519, PBLUC_HILL_SLOPE 2.7, PBLUC_R_SQUARED 0.347, read-out: LUCIFERASE INFECTION ASSAY - IC50): 4.68 µM |
| COc1ccc(-c2cnc3cnc(-c4cc(OC)cc(OC)c4)cn23)cc1 | 3.63 µM | IC50 (HEPG2TOX_HILL_SLOPE 2.43, HEPG2TOX_R_SQUARED 0.949, PBLUC_HILL_SLOPE 13, PBLUC_R_SQUARED 0.663, read-out: LUCIFERASE INFECTION ASSAY - IC50): 3.06 µM |
| CNc1ccc2ncc(-c3ccccc3)n2n1 | 13.6 µM | IC50 (HEPG2TOX_HILL_SLOPE 2.41, HEPG2TOX_R_SQUARED 0.973, PBLUC_HILL_SLOPE 2.77, PBLUC_R_SQUARED 0.442, read-out: LUCIFERASE INFECTION ASSAY - IC50): 6.15 µM |
| CCOC(=O)c1sc(N)c(C#N)c1COC(=O)C1(c2cccc(F)c2)CCCC1 | 8.29 µM | IC50 (HEPG2TOX_HILL_SLOPE 2.42, HEPG2TOX_R_SQUARED 0.924, PBLUC_HILL_SLOPE 2.7, PBLUC_R_SQUARED 0.388, read-out: LUCIFERASE INFECTION ASSAY - IC50): 3.67 µM |
| Cc1cccc(C)c1NC(=S)NC1CC(C)CC(C)(C)C1 (centres undefined) | 5.5 µM | IC50 (HEPG2TOX_HILL_SLOPE 2.42, HEPG2TOX_R_SQUARED 0.462, PBLUC_HILL_SLOPE 8.54, PBLUC_R_SQUARED 0.744, read-out: LUCIFERASE INFECTION ASSAY - IC50): 4.25 µM |
| O=C(Nc1nc2ccccc2[nH]1)c1ccoc1 | > 10 µM | IC50 (HEPG2TOX_HILL_SLOPE 2.41, HEPG2TOX_R_SQUARED 0.931, read-out: LUCIFERASE INFECTION ASSAY - IC50): > 10 µM |
| CC(=O)Nc1cccc(-c2ccc3ncc(-c4ccc5c(c4)OCO5)n3n2)c1 | 3.94 µM | IC50 (HEPG2TOX_HILL_SLOPE 2.37, HEPG2TOX_R_SQUARED 0.964, PBLUC_HILL_SLOPE 13.4, PBLUC_R_SQUARED 0.492, read-out: LUCIFERASE INFECTION ASSAY - IC50): 3.34 µM |
| CC(=O)O[C@H]1CC[C@]23C(=O)O[C@]45CC[C@H](C6=CC(=O)OC6)[C@@]4(C)CCC2C5CC[C@]3(O)C1 | 0.747 µM | IC50 (HEPG2TOX_HILL_SLOPE 2.43, HEPG2TOX_R_SQUARED 0.931, PBLUC_HILL_SLOPE 2.64, PBLUC_R_SQUARED 0.666, read-out: LUCIFERASE INFECTION ASSAY - IC50): 0.325 µM |
| Clc1ccc2c(c1)C(Nc1ccc3nnnn3n1)CCS2 (centres undefined) | > 10 µM | IC50 (HEPG2TOX_HILL_SLOPE 2.38, HEPG2TOX_R_SQUARED 0.171, read-out: LUCIFERASE INFECTION ASSAY - IC50): > 10 µM |
| C=CCNC(=O)NC(=O)CSc1nnc(-c2ccc(OC)cc2)n1-c1cccc(C(F)(F)F)c1 | 6.91 µM | IC50 (HEPG2TOX_HILL_SLOPE 2.39, HEPG2TOX_R_SQUARED 0.903, PBLUC_HILL_SLOPE 3.60, 2.97, PBLUC_R_SQUARED 0.951, 0.459, read-out: LUCIFERASE INFECTION ASSAY - IC50): 3.56 µM |
| COc1ccc(Nc2c(Cl)cc(OC)cc2Cl)cc1 | 3.85 µM | IC50 (HEPG2TOX_HILL_SLOPE 2.37, HEPG2TOX_R_SQUARED 0.991, PBLUC_HILL_SLOPE 4.31, PBLUC_R_SQUARED 0.544, read-out: LUCIFERASE INFECTION ASSAY - IC50): 2.31 µM |
| Clc1ccccc1Nc1cc2c(cn1)ncn2Cc1ccco1 | > 10 µM | IC50 (HEPG2TOX_HILL_SLOPE 2.43, HEPG2TOX_R_SQUARED 0.709, PBLUC_HILL_SLOPE 4.59, PBLUC_R_SQUARED 0.452, read-out: LUCIFERASE INFECTION ASSAY - IC50): 7.52 µM |
| CCn1nc(C(=O)NCc2ccc(OC)cc2)c2c1CCN(C(=O)C1Cc3ccccc3O1)C2 (centres undefined) | 6.24 µM | IC50 (HEPG2TOX_HILL_SLOPE 2.42, HEPG2TOX_R_SQUARED 0.906, PBLUC_HILL_SLOPE 2.97, PBLUC_R_SQUARED 0.096, read-out: LUCIFERASE INFECTION ASSAY - IC50): 2.98 µM |
| c1ccc(SCc2ccc(-c3nc4ccccc4s3)cc2)nc1 | 8.53 µM | IC50 (HEPG2TOX_HILL_SLOPE 2.39, HEPG2TOX_R_SQUARED 0.939, PBLUC_HILL_SLOPE 0.884, PBLUC_R_SQUARED 0.644, read-out: LUCIFERASE INFECTION ASSAY - IC50): 0.71 µM |
| COc1cc(OC)cc(-c2cn3c(-c4ccc5ncccc5c4)cnc3cn2)c1 | 6.15 µM | IC50 (HEPG2TOX_HILL_SLOPE 2.4, HEPG2TOX_R_SQUARED 0.938, PBLUC_HILL_SLOPE 4.1, PBLUC_R_SQUARED 0.34, read-out: LUCIFERASE INFECTION ASSAY - IC50): 3.6 µM |
| Cn1nc(-c2ccccc2)c(-c2nc3ccccc3n2C)c1-c1ccccc1 | 8.97 µM | IC50 (HEPG2TOX_HILL_SLOPE 2.41, HEPG2TOX_R_SQUARED 0.613, PBLUC_HILL_SLOPE 4.44, PBLUC_R_SQUARED 0.302, read-out: LUCIFERASE INFECTION ASSAY - IC50): 5.47 µM |
